Source: patent US20110118238A1, “2-ANILINOPURIN-8-ONES AS INHIBITORS OF TTK/MPS1 FOR THE TREATMENT OF PROLIFERATIVE DISORDERS” (ASTRAZENECA AB, priority 2007, published 2011)

Target: T1, N-terminal GST tagged full length human TTK kinase (Homo sapiens, UniProt P33981)
T1 construct: N-terminal GST tagged full length human TTK kinase; GST (N); made in house; host or cells: insect cells
T1 sequence (P33981 1-857): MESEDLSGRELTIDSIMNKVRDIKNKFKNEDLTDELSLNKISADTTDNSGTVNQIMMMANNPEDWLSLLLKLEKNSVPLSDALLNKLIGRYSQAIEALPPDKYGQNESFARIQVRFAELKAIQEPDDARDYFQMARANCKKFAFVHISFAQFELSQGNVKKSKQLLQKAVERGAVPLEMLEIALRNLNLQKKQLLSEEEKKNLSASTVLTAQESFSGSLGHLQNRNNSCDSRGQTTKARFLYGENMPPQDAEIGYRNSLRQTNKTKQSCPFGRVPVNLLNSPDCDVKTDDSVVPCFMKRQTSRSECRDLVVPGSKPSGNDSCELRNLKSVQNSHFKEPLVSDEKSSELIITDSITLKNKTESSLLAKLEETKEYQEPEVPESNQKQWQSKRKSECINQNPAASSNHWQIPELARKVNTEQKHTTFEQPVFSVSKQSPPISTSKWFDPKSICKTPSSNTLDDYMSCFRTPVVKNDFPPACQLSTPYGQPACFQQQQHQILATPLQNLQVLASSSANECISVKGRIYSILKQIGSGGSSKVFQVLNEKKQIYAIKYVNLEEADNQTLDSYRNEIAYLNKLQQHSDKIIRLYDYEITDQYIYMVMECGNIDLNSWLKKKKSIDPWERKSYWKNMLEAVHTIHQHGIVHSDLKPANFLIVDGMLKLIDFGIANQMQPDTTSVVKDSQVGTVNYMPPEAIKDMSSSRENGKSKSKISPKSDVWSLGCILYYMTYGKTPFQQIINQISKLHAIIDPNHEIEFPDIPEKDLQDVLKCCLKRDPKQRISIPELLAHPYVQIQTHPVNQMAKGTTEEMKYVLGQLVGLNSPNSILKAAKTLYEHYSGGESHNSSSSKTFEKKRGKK
Assay: In Vitro TTK Kinase Assay 2 (Caliper LabChip LC3000)
Format: biochemical
Details: recombinant TTK, 12 μM ATP, read-out: EAA2: Enzyme Assay Activity (In Vitro TTK kinase assay 2)
Description: Each reaction was stopped by the addition of EDTA to a concentration of 40 mM in a solution which also comprised 0.1% coating reagent (Caliper LS), 100 mM HEPES pH 7.5, 0.015% v/v Brij™-35 and 5% DMSO. The stopped enzyme reactions were sipped through capillaries onto a Caliper chip where the peptide substrate and phosphorylated product were separated and detected via laser-induced fluorescence.

Row | SMILES | IC50 [µM]
1 | CCN1CCN(c2ccc(Nc3ncc4c(n3)n(C(C)C)c(=O)n4C)c(OC)c2)CC1 [Example 45, 2-{[4-(4-Ethylpiperazin-1-yl)-2-methoxyphenyl]amino}-9-isopropyl-7-methyl-7,9-dihydro-8H-purin-8-one] | 0.109
2 | COc1cc(C(=O)NC2CCC(N(C)C)CC2)ccc1Nc1ncc2c(n1)n(C1CCCC1)c(=O)n2C (stereo not drawn) [Example 58] | 0.136
3 | COCCN1CCC(NC(=O)c2ccc(Nc3ncc4c(n3)n(C3CCCC3)c(=O)n4C)c(OC)c2)CC1 [Example 59, 4-[(9-Cyclopentyl-7-methyl-8-oxo-8,9-dihydro-7H-purin-2-yl)-amino]-3-methoxy-N-[1-(2-methoxyethyl)piperidin-4-yl]benzamide] | 0.0745
4 | COc1cc(N2CCN(C)CC2)ccc1Nc1ncc2c(n1)n(C1CCNCC1)c(=O)n2C [Example 70, 2-{[2-Methoxy-4-(4-methylpiperazin-1-yl)phenyl]amino}-7-methyl-9-piperidin-4-yl-7,9-dihydro-8H-purin-8-one] | 5.36
5 | COc1cc(C(=O)NC2CCN(C)CC2)ccc1Nc1ncc2c(n1)n(C(C)C)c(=O)n2C [Example 40, 4-[(9-Isopropyl-7-methyl-8-oxo-8,9-dihydro-7H-purin-2-yl)amino]-3-methoxy-N-(1-methylpiperidin-4-yl)benzamide] | 0.338
6 | Cn1c(=O)n(C2CCCC2)c2nc(Nc3ccc(N4CCOCC4)cc3)ncc21 [Example 80, 9-Cyclopentyl-7-methyl-2-[(4-morpholin-4-ylphenyl)amino]-7,9-dihydro-8H-purin-8-one] | 0.14
7 | Cn1c(=O)n(C2CCCC2)c2nc(Nc3ccc(Cc4ccccc4)cc3)ncc21 [Example 78, 2-[(4-Benzylphenyl)amino]-9-cyclopentyl-7-methyl-7,9-dihydro-8H-purin-8-one] | 0.195
8 | CC(C)n1c(=O)n(C)c2cnc(Nc3ccc(C(=O)NC4CCN(C)CC4)c(F)c3)nc21 [Example 39, 2-Fluoro-4-[(9-isopropyl-7-methyl-8-oxo-8,9-dihydro-7H-purin-2-yl)-amino]-N-(1-methylpiperidin-4-yl)benzamide] | 2.46
9 | CCN1CCCC1CNC(=O)c1ccc(Nc2ncc3c(n2)n(C2CCCC2)c(=O)n3C)c(OC)c1 (stereo not drawn) [Example 60, 4-[(9-Cyclopentyl-7-methyl-8-oxo-8,9-dihydro-7H-purin-2-yl)-amino]-N-[(1-ethylpyrrolidin-2-yl)methyl]-3-methoxybenzamide] | 0.114
10 | COc1cc(N2CCN(C)CC2)ccc1Nc1ncc2c(n1)n(C(C)C)c(=O)n2C [Example 44, 9-Isopropyl-2-{[2-methoxy-4-(4-methylpiperazin-1-yl)phenyl]-amino}-7-methyl-7,9-dihydro-8H-purin-8-one] | 0.119
11 | CNC(=O)c1ccc(Nc2ncc3c(n2)n(C(C)C)c(=O)n3C)c(OC)c1 [Example 41, 4-[(9-Isopropyl-7-methyl-8-oxo-8,9-dihydro-7H-purin-2-yl)amino]-3-methoxy-N-methylbenzamide] | 7.13
12 | Cn1c(=O)n(C2CCCC2)c2nc(Nc3ccc(CCO)cc3)ncc21 [Example 73, 9-Cyclopentyl-2-{[4-(2-hydroxyethyl)phenyl]amino}-7-methyl-7,9-dihydro-8H-purin-8-one] | 0.106
13 | Cn1c(=O)n(C2CCCC2)c2nc(Nc3ccc(N4CCCCC4)cc3)ncc21 [Example 77, 9-Cyclopentyl-7-methyl-2-[(4-piperidin-1-ylphenyl)amino]-7,9-dihydro-8H-purin-8-one] | 0.109
14 | Cn1c(=O)n(C2CCCC2)c2nc(Nc3ccc(Oc4ccccc4)cc3)ncc21 [Example 75, 9-Cyclopentyl-7-methyl-2-[(4-phenoxyphenyl)amino]-7,9-dihydro-8H-purin-8-one] | 0.523
15 | COc1cc(C(=O)N2CCN(C3CCN(C)CC3)CC2)ccc1Nc1ncc2c(n1)n(C1CCCC1)c(=O)n2C [Example 51, 9-Cyclopentyl-2-[(2-methoxy-4-{[4-(1-methylpiperidin-4-yl)-piperazin-1-yl]-carbonyl}phenyl)amino]-7-methyl-7,9-dihydro-8H-purin-8-one] | 0.148
16 | COc1cc(OC2CCN(C)CC2)ccc1Nc1ncc2c(n1)n(C(C)C)c(=O)n2C [Example 42, 9-Isopropyl-2-({2-methoxy-4-[(1-methylpiperidin-4-yl)oxy]phenyl}-amino)-7-methyl-7,9-dihydro-8H-purin-8-one] | 0.0688
17 | CCOc1cc(N2CCN(C)CC2)ccc1Nc1ncc2c(n1)n(C(C)C)c(=O)n2C [Example 46, 2-{[2-Ethoxy-4-(4-methylpiperazin-1-yl)phenyl]amino}-9-isopropyl-7-methyl-7,9-dihydro-8H-purin-8-one] | 0.144

Stronger by IC50, values ahead:

Row | IC50 [µM] | SMILES
18 | 0.0664 | COc1cc(C(=O)NCCN2CCCCC2)ccc1Nc1ncc2c(n1)n(C1CCCC1)c(=O)n2C [Example 63, 4-[(9-Cyclopentyl-7-methyl-8-oxo-8,9-dihydro-7H-purin-2-yl)-amino]-3-methoxy-N-(2-piperidin-1-ylethyl)benzamide]
19 | 0.0653 | COc1cc(C(=O)N[C@@H]2CCNC2)ccc1Nc1ncc2c(n1)n(C1CCCC1)c(=O)n2C [Example 68, 4-[(9-Cyclopentyl-7-methyl-8-oxo-8,9-dihydro-7H-purin-2-yl)-amino]-3-methoxy-N-[(3R)-pyrrolidin-3-yl]benzamide]
20 | 0.0611 | COc1cc(C(=O)NCCN2CCN(C)CC2)ccc1Nc1ncc2c(n1)n(C1CCCC1)c(=O)n2C [Example 64, 4-[(9-Cyclopentyl-7-methyl-8-oxo-8,9-dihydro-7H-purin-2-yl)-amino]-3-methoxy-N-[2-(4-methylpiperazin-1-yl)ethyl]benzamide]
21 | 0.0536 | COc1cc(C(=O)NCCCCN(C)C)ccc1Nc1ncc2c(n1)n(C1CCCC1)c(=O)n2C [Example 61, 4-[(9-Cyclopentyl-7-methyl-8-oxo-8,9-dihydro-7H-purin-2-yl)-amino]-N-[4-(dimethylamino)butyl]-3-methoxybenzamide]
22 | 0.0509 | COc1cc(C(=O)NCCCN(C)C)ccc1Nc1ncc2c(n1)n(C1CCCC1)c(=O)n2C [Example 62, 4-[(9-Cyclopentyl-7-methyl-8-oxo-8,9-dihydro-7H-purin-2-yl)-amino]-N-[3-(dimethylamino)propyl]-3-methoxybenzamide]
23 | 0.0452 | Cn1c(=O)n(C2CCCC2)c2nc(Nc3ccc(-n4cccn4)cc3)ncc21 [Example 79, 9-Cyclopentyl-7-methyl-2-{[4-(1H-pyrazol-1-yl)phenyl]amino}-7,9-dihydro-8H-purin-8-one]
24 | 0.0413 | COc1cc(C(=O)N[C@H]2CCNC2)ccc1Nc1ncc2c(n1)n(C1CCCC1)c(=O)n2C [Example 69, 4-[(9-Cyclopentyl-7-methyl-8-oxo-8,9-dihydro-7H-purin-2-yl)-amino]-3-methoxy-N-[(3S)-pyrrolidin-3-yl]benzamide]
25 | 0.0412 | COc1cc(C(=O)NCCCn2ccnc2)ccc1Nc1ncc2c(n1)n(C1CCCC1)c(=O)n2C [Example 52, 4-[(9-Cyclopentyl-7-methyl-8-oxo-8,9-dihydro-7H-purin-2-yl)-amino]-N-[3-(1H-imidazol-1-yl)propyl]-3-methoxybenzamide]
26 | 0.0362 | COc1cc(C(=O)N(C)CCCN(C)C)ccc1Nc1ncc2c(n1)n(C1CCCC1)c(=O)n2C [Example 54, 4-[(9-Cyclopentyl-7-methyl-8-oxo-8,9-dihydro-7H-purin-2-yl)-amino]-N-[3-(dimethylamino)propyl]-3-methoxy-N-methylbenzamide]
27 | 0.027 | Cn1c(=O)n(C2CCCC2)c2nc(Nc3ccc(N4CCOCC4)c(Cl)c3)ncc21 [Example 72, 2-[(3-Chloro-4-morpholin-4-ylphenyl)amino]-9-cyclopentyl-7-methyl-7,9-dihydro-8H-purin-8-one]
28 | 0.027 | COc1cc(C(=O)N(C)C)ccc1Nc1ncc2c(n1)n(C1CCCC1)c(=O)n2C [Example 65, 4-[(9-Cyclopentyl-7-methyl-8-oxo-8,9-dihydro-7H-purin-2-yl)-amino]-3-methoxy-N,N-dimethylbenzamide]
29 | 0.0183 | Cn1c(=O)n(C2CCCC2)c2nc(Nc3ccc(-c4cnco4)cc3)ncc21 [Example 76, 9-Cyclopentyl-7-methyl-2-{[4-(1,3-oxazol-5-yl)phenyl]amino}-7,9-dihydro-8H-purin-8-one]
30 | 0.0175 | COc1cc(C(=O)N2CC[C@@H](N(C)C)C2)ccc1Nc1ncc2c(n1)n(C1CCCC1)c(=O)n2C [Example 55, 9-Cyclopentyl-2-[(4-{[(3R)-3-(dimethylamino)pyrrolidin-1-yl]-carbonyl}-2-methoxyphenyl)amino]-7-methyl-7,9-dihydro-8H-purin-8-one]
